“And” between values parts separate entries of the source, which are not always exact repeats. Identical values can stand only once.
Key:
[1] = molecular target: Acetylcholinesterase (Homo sapiens, UniProt P22303); experiment: Inhibition of AChE (unknown origin)
[2] = molecular target: cGMP-specific 3',5'-cyclic phosphodiesterase (Homo sapiens, UniProt O76074); experiment: Inhibition of PDE5 (unknown origin)
[3] = molecular target: T1, Gamma-aminobutyric acid receptor subunit alpha-1 (Homo sapiens, UniProt P14867); experiment: Binding affinity to human recombinant GABAA alpha1 receptor assessed as inhibition constant incubated for 1 hrs by liquid scintillation counting analysis
T1 sequence (P14867 whole entry): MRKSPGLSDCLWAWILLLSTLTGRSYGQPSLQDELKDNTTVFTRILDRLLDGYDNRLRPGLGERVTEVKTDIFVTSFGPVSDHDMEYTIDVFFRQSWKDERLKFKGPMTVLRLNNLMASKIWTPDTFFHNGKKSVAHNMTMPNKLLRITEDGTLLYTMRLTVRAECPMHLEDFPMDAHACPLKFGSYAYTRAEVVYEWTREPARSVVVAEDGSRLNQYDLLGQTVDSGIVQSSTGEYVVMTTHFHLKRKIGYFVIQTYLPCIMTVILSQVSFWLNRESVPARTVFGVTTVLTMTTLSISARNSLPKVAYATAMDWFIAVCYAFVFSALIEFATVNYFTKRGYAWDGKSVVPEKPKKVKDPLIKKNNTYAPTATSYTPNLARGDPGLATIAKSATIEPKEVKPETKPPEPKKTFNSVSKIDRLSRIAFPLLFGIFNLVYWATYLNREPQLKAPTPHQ

[4] = molecular target: T2, Gamma-aminobutyric acid receptor subunit alpha-2 (Homo sapiens, UniProt P47869); experiment: Binding affinity to human recombinant GABAA alpha2 receptor assessed as inhibition constant incubated for 1 hrs by liquid scintillation counting analysis
T2 sequence (P47869 whole entry): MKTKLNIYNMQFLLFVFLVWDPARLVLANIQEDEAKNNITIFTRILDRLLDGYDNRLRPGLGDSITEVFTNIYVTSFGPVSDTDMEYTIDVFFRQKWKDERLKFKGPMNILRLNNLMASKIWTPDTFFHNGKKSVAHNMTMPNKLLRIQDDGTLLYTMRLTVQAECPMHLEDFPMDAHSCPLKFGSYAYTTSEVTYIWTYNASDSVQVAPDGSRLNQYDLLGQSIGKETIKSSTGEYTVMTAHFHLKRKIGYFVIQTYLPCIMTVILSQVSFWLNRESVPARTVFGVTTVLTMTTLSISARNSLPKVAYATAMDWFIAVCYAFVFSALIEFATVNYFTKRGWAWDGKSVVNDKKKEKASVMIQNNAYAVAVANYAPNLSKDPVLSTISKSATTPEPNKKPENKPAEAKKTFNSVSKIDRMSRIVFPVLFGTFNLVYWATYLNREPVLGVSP

[5] = molecular target: T3, Gamma-aminobutyric acid receptor subunit alpha-3 (Homo sapiens, UniProt P34903); experiment: Binding affinity to human recombinant GABAA alpha3 receptor assessed as inhibition constant incubated for 1 hrs by liquid scintillation counting analysis
T3 sequence (P34903 whole entry): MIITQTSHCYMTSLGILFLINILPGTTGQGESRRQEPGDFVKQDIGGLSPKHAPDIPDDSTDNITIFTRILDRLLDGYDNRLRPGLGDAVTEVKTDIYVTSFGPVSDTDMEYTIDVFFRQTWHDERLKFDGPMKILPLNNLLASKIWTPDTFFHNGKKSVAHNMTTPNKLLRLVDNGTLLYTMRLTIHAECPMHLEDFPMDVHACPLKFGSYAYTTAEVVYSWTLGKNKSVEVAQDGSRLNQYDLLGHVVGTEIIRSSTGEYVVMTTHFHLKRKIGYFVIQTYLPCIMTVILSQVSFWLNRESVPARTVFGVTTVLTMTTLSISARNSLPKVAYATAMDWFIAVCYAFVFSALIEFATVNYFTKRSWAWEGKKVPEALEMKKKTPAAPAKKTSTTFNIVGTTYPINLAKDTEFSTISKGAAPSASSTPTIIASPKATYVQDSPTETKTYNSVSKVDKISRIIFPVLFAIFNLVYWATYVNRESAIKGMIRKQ

[6] = molecular target: T4, Gamma-aminobutyric acid receptor subunit alpha-5 (Homo sapiens, UniProt P31644); experiment: Binding affinity to human recombinant GABAA alpha5 receptor assessed as inhibition constant incubated for 1 hrs by liquid scintillation counting analysis
T4 sequence (P31644 whole entry): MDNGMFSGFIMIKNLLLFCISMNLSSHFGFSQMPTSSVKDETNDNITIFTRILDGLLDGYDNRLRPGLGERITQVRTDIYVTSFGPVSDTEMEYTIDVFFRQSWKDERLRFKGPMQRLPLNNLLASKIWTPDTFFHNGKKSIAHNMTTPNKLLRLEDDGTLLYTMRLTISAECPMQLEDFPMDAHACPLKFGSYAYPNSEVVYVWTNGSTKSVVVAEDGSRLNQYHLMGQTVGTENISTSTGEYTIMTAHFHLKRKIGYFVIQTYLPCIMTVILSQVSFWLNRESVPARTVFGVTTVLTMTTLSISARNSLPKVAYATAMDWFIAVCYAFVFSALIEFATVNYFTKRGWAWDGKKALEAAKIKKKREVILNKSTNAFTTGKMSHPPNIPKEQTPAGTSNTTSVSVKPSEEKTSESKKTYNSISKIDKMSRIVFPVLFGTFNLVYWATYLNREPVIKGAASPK

[7] = molecular target: Gamma-aminobutyric acid receptor subunit alpha-6 (Homo sapiens, UniProt Q16445); experiment: Binding affinity to human recombinant GABAA alpha6 receptor assessed as inhibition constant incubated for 1 hrs by liquid scintillation counting analysis
Gamma-aminobutyric acid receptor subunit alpha-6, sequence (Q16445 whole entry): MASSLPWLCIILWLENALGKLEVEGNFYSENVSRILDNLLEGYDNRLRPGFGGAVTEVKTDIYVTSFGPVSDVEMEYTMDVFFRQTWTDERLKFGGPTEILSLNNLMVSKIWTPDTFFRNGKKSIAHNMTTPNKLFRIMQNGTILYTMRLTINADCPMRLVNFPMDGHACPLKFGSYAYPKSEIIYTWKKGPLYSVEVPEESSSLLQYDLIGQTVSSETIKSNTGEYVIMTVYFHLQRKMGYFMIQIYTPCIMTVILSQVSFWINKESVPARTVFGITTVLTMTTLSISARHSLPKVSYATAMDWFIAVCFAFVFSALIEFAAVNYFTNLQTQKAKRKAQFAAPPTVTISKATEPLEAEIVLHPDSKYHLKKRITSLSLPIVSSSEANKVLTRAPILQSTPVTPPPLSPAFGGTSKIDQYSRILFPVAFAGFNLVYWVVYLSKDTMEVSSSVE

[8] = molecular target: GABA-A receptor; anion channel; experiment: Displacement of [3H]flunitrazepam from GABAA (unknown origin ) receptor by radioligand binding assay; format: protein-complex assay, Homo sapiens
[9] = molecular target: Cholinesterase (Homo sapiens, UniProt P06276); experiment: Inhibition of BuChE (unknown origin)
Cholinesterase, sequence (P06276 whole entry): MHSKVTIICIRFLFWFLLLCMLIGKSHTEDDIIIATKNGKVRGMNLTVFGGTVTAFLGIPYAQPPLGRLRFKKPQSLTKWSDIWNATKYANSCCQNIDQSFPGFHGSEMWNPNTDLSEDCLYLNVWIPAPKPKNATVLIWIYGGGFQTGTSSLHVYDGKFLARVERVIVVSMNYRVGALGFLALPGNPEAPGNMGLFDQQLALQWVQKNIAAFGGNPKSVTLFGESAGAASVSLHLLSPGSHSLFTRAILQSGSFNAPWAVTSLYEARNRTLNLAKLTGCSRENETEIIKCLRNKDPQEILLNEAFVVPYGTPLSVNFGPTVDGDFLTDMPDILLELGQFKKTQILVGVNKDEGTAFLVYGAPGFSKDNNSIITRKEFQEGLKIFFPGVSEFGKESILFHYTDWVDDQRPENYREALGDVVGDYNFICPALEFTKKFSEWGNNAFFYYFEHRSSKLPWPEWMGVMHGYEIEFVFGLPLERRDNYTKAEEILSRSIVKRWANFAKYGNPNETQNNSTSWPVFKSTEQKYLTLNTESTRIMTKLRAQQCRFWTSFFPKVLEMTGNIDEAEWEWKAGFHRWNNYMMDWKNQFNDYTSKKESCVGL

Acetylcholinesterase, sequence (P22303 whole entry): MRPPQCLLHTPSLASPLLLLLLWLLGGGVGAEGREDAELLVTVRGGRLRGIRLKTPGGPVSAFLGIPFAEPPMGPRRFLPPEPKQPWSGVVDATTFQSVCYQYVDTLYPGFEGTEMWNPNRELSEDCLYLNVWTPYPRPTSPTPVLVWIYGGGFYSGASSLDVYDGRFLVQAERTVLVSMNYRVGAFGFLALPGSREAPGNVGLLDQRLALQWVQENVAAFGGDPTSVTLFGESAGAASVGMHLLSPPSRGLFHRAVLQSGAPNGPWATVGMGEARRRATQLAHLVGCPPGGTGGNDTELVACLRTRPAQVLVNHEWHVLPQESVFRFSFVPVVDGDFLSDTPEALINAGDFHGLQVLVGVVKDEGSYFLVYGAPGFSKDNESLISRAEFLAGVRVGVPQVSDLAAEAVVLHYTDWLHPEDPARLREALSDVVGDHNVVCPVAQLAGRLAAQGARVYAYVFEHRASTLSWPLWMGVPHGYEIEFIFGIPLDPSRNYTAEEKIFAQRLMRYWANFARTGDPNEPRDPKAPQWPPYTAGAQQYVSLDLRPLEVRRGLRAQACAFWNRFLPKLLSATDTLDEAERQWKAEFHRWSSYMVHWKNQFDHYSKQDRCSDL

SMILES: O=C1C2Cc3c([nH]c4ccccc34)[C@@H](c3ccc4c(c3)OCO4)N2C(=O)CN1CCC1CCN(Cc2ccccc2)CC1 (stereo partly specified)
- IC50 [1]: 36 nM
- IC50 [2]: 150 nM

SMILES: O=C1[C@@H]2Cc3c([nH]c4ccccc34)[C@@H](c3ccc4c(c3)OCO4)N2C(=O)CN1CCC1CCN(Cc2ccccc2)CC1
- IC50 [1]: 32 nM
- IC50 [2]: 1500 nM

SMILES: c1ccc2c(c1)[nH]c1c2ncc2[nH]c3ccccc3c21
- Ki [3]: 1 nM
- Ki [4]: 1 nM
- Ki [5]: 1 nM
- Ki [6]: 40 nM
- Ki [7]: > 1000 nM

SMILES: O=C(O)c1cc2c(cn1)[nH]c1ccccc12
- IC50 [8]: 31000 nM

SMILES: CCN1C(=O)[C@@H]2Cc3c([nH]c4ccccc34)[C@@H](c3ccc(Cl)cc3)N2C1=O
- IC50 [2]: 330 nM

SMILES: CCCCN1CC2Cc3c([nH]c4ccccc34)C(c3ccc(OC)cc3)N2C1=O (stereo unspecified)
- IC50 [2]: 60 nM

SMILES: COc1ccc2c3c([nH]c2c1N)C(C)NCC3 (stereo unspecified)
- IC50 [1]: 2000 nM

SMILES: COc1ccc([C@@H]2N[C@@H](C(=O)O)Cc3c2n(C)c2ccccc32)cc1OC
- IC50 [1]: 2500 nM

SMILES: CCN1C(=O)[C@H]2Cc3c([nH]c4ccccc34)[C@@H](c3ccc(Br)s3)N2C1=O
- IC50 [2]: 170 nM

SMILES: CCCOC(=O)c1cc2c(cn1)[nH]c1ccccc12
- IC50 [8]: 1 nM

SMILES: CCOC(=O)c1ncc2[nH]c3cccc(OCc4ccccc4)c3c2c1COC
- IC50 [8]: 0.2 nM

SMILES: O=C(NCCCCCCNc1c2c(nc3ccccc13)CCCC2)[C@@H]1Cc2c([nH]c3ccccc23)CN1
- IC50 [1]: 22 nM
- INH [9]: 22 nM

SMILES: CCN1C(=O)C2Cc3c([nH]c4ccccc34)C(c3ccc(OC)cc3)N2C1=O (stereo unspecified)
- IC50 [2]: 3 nM

SMILES: CCCC(=O)c1cc2c(cn1)[nH]c1ccccc12
- IC50 [8]: 3 nM
- Ki [3]: 2 nM
- Ki [4]: 16 nM
- Ki [5]: 21 nM
- Ki [6]: 1000 nM
- Ki [7]: > 3000 nM

SMILES: COC(=O)c1cc2c(cn1)[nH]c1ccc(O)cc12
- IC50 [8]: 4 nM

SMILES: C#CCn1c2cc(OC)ccc2c2ccnc(C)c21
- IC50 [1]: 1900 nM

SMILES: CCN1C(=O)[C@@H]2Cc3c([nH]c4ccccc34)[C@@H](c3ccc(Br)cc3)N2C1=O
- IC50 [2]: 40 nM

SMILES: CCOC(=O)c1ncc2[nH]c3ccc(OC)cc3c2c1COC
- IC50 [8]: 0.5 nM
- Ki [3]: 0.1 nM
- Ki [4]: 1 nM
- Ki [5]: 2 nM
- Ki [6]: 4 nM

SMILES: N#Cc1cc2c(cn1)[nH]c1ccccc12
- IC50 [8]: 3 nM

SMILES: COc1ccc(N2CC(=O)N3[C@H](c4ccc5c(c4)OCO5)c4[nH]c5ccccc5c4C[C@@H]3C2=O)cc1
- IC50 [2]: 16 nM

SMILES: Cn1c2ccccc2c2cc[n+](-c3ccc(Cl)cc3)cc21
- IC50 [1]: 560 nM and 300 nM
- IC50 [9]: 32000 nM and 116000 nM

SMILES: CN1CCN(C(=O)c2ccc(-c3ccc(C(=O)N4CCc5c([nH]c6ccccc56)C4c4ccc5c(c4)OCO5)o3)cc2)CC1 (stereo unspecified)
- IC50 [2]: 8 nM

SMILES: CCc1c(C(=O)OC)nc(C)c2[nH]c3cc(OC)c(OC)cc3c12
- Ki [3]: 6 nM
- Ki [4]: 8 nM
- Ki [5]: 4 nM
- Ki [6]: 1 nM
- Ki [7]: 130 nM

SMILES: CCOC(=O)c1ncc2[nH]c3cccc(OC(C)C)c3c2c1C
- IC50 [8]: 0.4 nM

SMILES: CC(C)(C)COC(=O)c1cc2c(cn1)[nH]c1ccccc12
- IC50 [8]: 750 nM
